# Data: patent US20140005163A1 (NOVARTIS AG, priority 2010, published 2014)
# Tests used:
# [1] = Solubility in the organic solvents PEG400, propyleneglycol and ethanol; type: physicochemical; conditions: organic solvent or mixture
# Description: Compounds of the invention display particularly high solubilities in organic solvents. The compounds of the invention are thus particularly useful for topical administration, e.g. to a mammal such as a human, e.g. to the skin of said mammal. The compounds are thus useful for formulation into compositions suitable for topical administration. Compounds displaying high solubility thus provide an advantage for topical administration over compounds having a lower solubility.
# The solubility of certain compounds was determined in the organic solvents PEG400, propyleneglycol and ethanol.
# [2] = Cellular CaCo2 permeability assay from apical to basal (A-B); type: in vitro ADME; conditions: human, Caco-2, read-out: Pe A-B (permeability)
# Description: The permeability in 10^−6 cm/s of compounds of formula (I) have been confirmed for selected example using a cellular CaCo2 permeability assay from apical to basal (A-B): […]
# [3] = In vitro skin penetration and permeation, pig skin in static Franz-type diffusion cells; type: in vitro ADME; conditions: 0.5% solution in propylene glycol, 48 hours exposure, mean ± SD of triplicate; for Skin concentration: after removal of stratum corneum; for Permeation rate: receiver
# Description: The skin penetration/permeation properties of two representative compounds of the present invention were tested as follows:
# The compounds were applied as 0.5% solutions in propylene glycol to pig skin mounted in static Franz-type diffusion cells. At the end of a 48 hours exposure time, drug concentrations were measured in the skin (after removal of stratum corneum) and in the receiver.
# [4] = In vivo penetration into dermis of topically treated pigs (skin PK); conditions: pig dermis in vivo, topical 0.5% in PG/EtOH 7:3; mean ± SEM, n=8
# Description: Small skin areas (4 cm^2) on the dorsolateral back of young domestic pigs were treated topically with 0.5% solutions at different time intervals (1-8 hrs) prior to drug level determination. Skin flaps with the treated sites in the centre were dissected and removed. The skin flaps were spread, and heated metal blocks placed on the test sites for 1 minute to induce separation of epidermis from the dermis. After removal of the loosened epidermal sheets, 1 mm thick dermal sheets were prepared from the treated, de-epidermized skin with a dermatome. From these sheets 6 mm punch samples (6 mm Ø) were collected and analysed for test compound concentration by LC/MS. The procedure described was done with careful avoidance of contamination of the dermal samples with compound attached superficially to the epidermis.
# AUC means area under the curve, and is a well known term in clinical pharmacology. The AUC value describes the total uptake of the agent in a time interval.
# PI3K beta = target: T1, PI3K beta (Homo sapiens, UniProt P42338); assay: PI3K beta kinase assay (Kinase-Glo luminescence); type: biochemical
# T1 construct: for the full-length p110-b subunit are generated and fused by overlapping PCR; p85(iSH2) fusion partner (see partner chain) (N); His tag (C); made in house; host or cells: baculovirus; Tn5 (Trichoplusia ni) or TiniPro insect cells
# T1 sequence (P42338 with tags, fused parts or gaps limits assumed): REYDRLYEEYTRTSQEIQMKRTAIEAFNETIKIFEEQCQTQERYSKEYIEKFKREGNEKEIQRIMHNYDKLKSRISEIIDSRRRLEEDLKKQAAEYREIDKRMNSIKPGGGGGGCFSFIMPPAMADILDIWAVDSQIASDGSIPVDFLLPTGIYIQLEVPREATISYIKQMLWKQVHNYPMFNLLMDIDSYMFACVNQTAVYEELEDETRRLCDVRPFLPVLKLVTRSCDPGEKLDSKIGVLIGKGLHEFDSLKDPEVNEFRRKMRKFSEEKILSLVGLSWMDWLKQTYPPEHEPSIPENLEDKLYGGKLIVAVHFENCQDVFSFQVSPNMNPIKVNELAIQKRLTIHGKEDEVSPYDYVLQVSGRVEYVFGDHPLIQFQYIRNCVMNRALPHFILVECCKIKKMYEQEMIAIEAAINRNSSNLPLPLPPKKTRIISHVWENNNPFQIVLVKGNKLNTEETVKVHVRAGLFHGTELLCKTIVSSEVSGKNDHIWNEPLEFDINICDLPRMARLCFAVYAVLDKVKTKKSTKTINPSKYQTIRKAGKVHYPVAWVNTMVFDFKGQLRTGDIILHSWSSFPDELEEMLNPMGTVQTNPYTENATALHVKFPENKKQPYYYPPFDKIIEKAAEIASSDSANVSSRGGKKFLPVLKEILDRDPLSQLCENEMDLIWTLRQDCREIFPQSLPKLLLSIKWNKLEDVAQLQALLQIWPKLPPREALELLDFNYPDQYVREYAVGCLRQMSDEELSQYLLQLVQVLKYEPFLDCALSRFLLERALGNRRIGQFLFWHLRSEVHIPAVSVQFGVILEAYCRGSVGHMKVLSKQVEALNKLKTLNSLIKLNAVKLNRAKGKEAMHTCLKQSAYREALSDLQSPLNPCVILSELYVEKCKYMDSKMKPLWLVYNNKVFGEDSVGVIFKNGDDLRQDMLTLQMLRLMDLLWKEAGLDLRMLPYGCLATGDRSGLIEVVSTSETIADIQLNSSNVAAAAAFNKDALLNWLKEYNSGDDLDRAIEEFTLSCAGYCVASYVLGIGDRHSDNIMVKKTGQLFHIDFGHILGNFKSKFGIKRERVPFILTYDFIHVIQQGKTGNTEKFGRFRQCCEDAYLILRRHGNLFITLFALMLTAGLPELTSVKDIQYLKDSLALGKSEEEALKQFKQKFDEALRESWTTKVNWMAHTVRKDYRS
# Outline: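 Full-length p110β with a Gly-linked p85 iSH2 and a C-terminal His tag (BV949, 25 nM) was incubated with 10 μg/mL phosphatidylinositol and 1 μM ATP in 10 mM Tris pH 7.5, 3 mM MgCl2, 50 mM NaCl, 0.05% CHAPS, 1 mM DTT for 60 min at room temperature. Residual ATP was read by Kinase-Glo luminescence.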
# PI3K gamma = target: T2, PI3K gamma (Homo sapiens, UniProt P48736); assay: PI3K gamma kinase assay (Kinase-Glo luminescence); type: biochemical
# T2 construct: His tag (C); made in house; host or cells: baculovirus (pVL1393); Tn5 or TiniPro insect cells; construct from Roger Williams lab, MRC LMB
# T2 sequence (P48736 144-1102 limits assumed): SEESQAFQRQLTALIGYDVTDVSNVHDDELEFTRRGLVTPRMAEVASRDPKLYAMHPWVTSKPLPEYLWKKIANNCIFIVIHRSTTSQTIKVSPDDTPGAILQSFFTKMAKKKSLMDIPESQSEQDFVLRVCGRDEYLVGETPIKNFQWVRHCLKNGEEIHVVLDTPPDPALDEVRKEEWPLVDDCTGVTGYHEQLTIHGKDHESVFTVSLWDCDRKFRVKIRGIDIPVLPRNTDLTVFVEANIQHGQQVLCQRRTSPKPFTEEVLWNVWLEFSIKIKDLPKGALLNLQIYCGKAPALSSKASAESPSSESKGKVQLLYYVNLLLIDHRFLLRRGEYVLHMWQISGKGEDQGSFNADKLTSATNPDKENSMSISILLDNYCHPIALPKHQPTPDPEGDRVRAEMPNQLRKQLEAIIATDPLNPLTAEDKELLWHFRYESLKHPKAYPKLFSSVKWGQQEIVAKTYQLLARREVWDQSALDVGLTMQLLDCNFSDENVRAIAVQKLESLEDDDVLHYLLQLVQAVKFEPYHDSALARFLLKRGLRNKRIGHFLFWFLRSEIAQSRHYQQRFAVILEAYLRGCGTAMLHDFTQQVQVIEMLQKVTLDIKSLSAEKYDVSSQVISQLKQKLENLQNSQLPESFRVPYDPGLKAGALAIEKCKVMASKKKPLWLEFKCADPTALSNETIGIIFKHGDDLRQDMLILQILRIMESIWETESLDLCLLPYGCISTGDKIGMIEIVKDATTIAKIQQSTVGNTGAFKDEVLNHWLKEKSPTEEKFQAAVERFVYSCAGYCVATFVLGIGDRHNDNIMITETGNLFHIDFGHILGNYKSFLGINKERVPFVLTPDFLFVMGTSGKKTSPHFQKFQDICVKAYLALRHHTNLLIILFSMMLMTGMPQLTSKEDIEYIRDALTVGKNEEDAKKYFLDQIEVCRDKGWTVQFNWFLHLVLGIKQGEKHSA
# Outline: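 Luminescent ATP-depletion (Kinase-Glo) assay with 150 nM PI3Kγ, 1 μM ATP and 10 μg/mL phosphatidylinositol in 10 mM Tris-HCl pH 7.5, 3 mM MgCl2, 50 mM NaCl, 0.05% CHAPS, 1 mM DTT; 120 min at room temperature. Eight-point dilutions; IC50 by four-parameter logistic fit.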
# [5] = absolute ethanol, excipient Ethanol abs.
# [6] = propylene glycol, excipient Propyleneglycol
"solubility [1, 5]",solubility ([1]; excipient PEG400),"solubility [1, 6]",Papp A→B [2],Skin concentration [3],Permeation rate [3],AUC (0-8 h) in dermis [4],IC50 (PI3K beta),IC50 (PI3K gamma),Compound
> 21 mg/mL,> 19 mg/mL,> 20 mg/mL,26.7 ×10⁻⁶ cm/s,6.4 ± 3.5 µg/g,<0.4 ng/cm^2/hr,2.8 ± 1.0 µg·h/g,8 nM,,"Cc1ncc(-c2ccc3ncc4c(c3c2)n(-c2cn(C)nc2C)c(=O)n4C)cc1OC(C)C [Example 84.1, 1-(1,3-Dimethyl-1H-pyrazol-4-yl)-8-(5-isopropoxy-6-methyl-pyridin-3-yl)-3-methyl-1,3-dihydro-imidazo[4,5-c]quinolin-2-one]"
> 22 mg/mL,> 26 mg/mL,> 24 mg/mL,30.5 ×10⁻⁶ cm/s,9.3 ± 6.2 µg/g,0.5 ± 0.3 ng/cm^2/hr,3.7 ± 1.3 µg·h/g,7 nM,95 nM,"Cc1nn(C)cc1-n1c(=O)n(C)c2cnc3ccc(-c4cncc(OC(C)C)c4)cc3c21 [Example 58.1, 1-(1,3-Dimethyl-1H-pyrazol-4-yl)-8-(5-isopropoxy-pyridin-3-yl)-3-methyl-1,3-dihydro-imidazo[4,5-c]quinolin-2-one]"
